Reference: ChEMBL document CHEMBL3779887, “Robenidine Analogues as Gram-Positive Antibacterial Agents” (J Med Chem, 2016)
≈ marks a conversion by molar mass, not a printed value. Calls of active or inactive are those of the source. The calls are words filed in the database; no cut-off is given here.

How the values were obtained:
Staphylococcus aureus [1] = experiment: Bactericidal activity against methicillin-sensitive Staphylococcus aureus ATCC 29213 after 24 and 48 hrs; type: functional
Staphylococcus aureus [2] = experiment: Bactericidal activity against Methicillin-sensitive Staphylococcus aureus ATCC 29213 assessed as log reduction in bacterial cell number at 2 times MIC after 24 hrs by time kill curve analysis; type: functional, organism-based
[3] = Metabolic stability in mouse liver microsomes assessed as compound loss after 60 mins; type: ADME; details: read-out: Drug degradation
Staphylococcus aureus [4] = experiment: Bactericidal activity against methicillin-sensitive Staphylococcus aureus ATCC 29213 assessed as log reduction in bacterial cell number at 4 times MIC after 8 hrs by time-kill curve analysis; type: functional
[5] = Half life of compound in mouse liver microsomes; type: ADME
[6] = Cytotoxicity against human HEL299 cells after 24 hrs by WST-1 based colorimetric assay; type: cell-based, HEL 299
Staphylococcus aureus [7] = experiment: Bactericidal activity against methicillin-sensitive Staphylococcus aureus ATCC 29213 assessed as log reduction in bacterial cell number at 8 times MIC after 8 hrs by time-kill curve analysis; type: functional
[8] = Selectivity index, ratio of GI50 for human HEL299 cells to MIC50 for methicillin-sensitive Staphylococcus aureus clinical isolate; type: functional, HEL 299
[9] = Half life of compound in human liver microsomes; type: ADME
Staphylococcus aureus [10] = experiment: Bactericidal activity against Methicillin-sensitive Staphylococcus aureus ATCC 29213 assessed as log reduction in bacterial cell number at 8 times MIC after 24 hrs by time-kill curve analysis; type: functional, organism-based
Staphylococcus aureus [11] = experiment: Bactericidal activity against methicillin-resistant Staphylococcus aureus clinical isolate after 24 and 48 hrs; type: functional
Staphylococcus aureus [12] = experiment: Antibacterial activity against Staphylococcus aureus ATCC 29213 after 20 to 24 hrs in presence of 2% heat inactivated bovine serum; type: functional
[13] = Toxicity in po dosed rat; type: organism-based; details: in vivo
Pseudomonas aeruginosa [14] = experiment: Antibacterial activity against Pseudomonas aeruginosa ATCC 27853 after 20 to 24 hrs in presence of polymyxin B nonapeptide; type: functional
Staphylococcus aureus [15] = experiment: Inhibition of biofilm formation in methicillin-resistant Staphylococcus aureus assessed as log reduction at > 43.2 uM after 24 hrs by MBEC assay relative to control; type: functional
[16] = Toxicity in po dosed female rabbit; type: organism-based, Oryctolagus cuniculus; details: in vivo
[17] = Selectivity index, ratio of GI50 for human HepG2 cells to MIC50 for methicillin-sensitive Staphylococcus aureus clinical isolate; type: functional
Pseudomonas aeruginosa [18] = experiment: Ratio of MIC90 for Pseudomonas aeruginosa ATCC 27853 to MIC90 for Pseudomonas aeruginosa ATCC 27853 in presence of polymyxin B nonapeptide; type: functional
Staphylococcus aureus [19] = experiment: Bactericidal activity against Methicillin-sensitive Staphylococcus aureus ATCC 29213 assessed as log reduction in bacterial cell number at 4 times MIC after 24 hrs by time kill curve analysis; type: functional, organism-based
[20] = Selectivity index, ratio of GI50 for human HepG2 cells to MIC50 for methicillin-resistant Staphylococcus aureus clinical isolate; type: functional
Staphylococcus aureus [21] = experiment: Antibacterial activity against methicillin-resistant Staphylococcus aureus after 20 to 24 hrs; type: functional
Staphylococcus aureus [22] = experiment: Bactericidal activity against […] Staphylococcus aureus clinical isolate USA300 assessed as log reduction in bacterial cell number at 8 times MIC after 8 hrs by time-kill curve analysis; type: functional
Escherichia coli [23] = experiment: Ratio of MIC90 for Escherichia coli ATCC 25922 to MIC90 for Escherichia coli ATCC 25922 in presence of polymyxin B nonapeptide; type: functional
Staphylococcus aureus [24] = experiment: Antibacterial activity against methicillin-resistant Staphylococcus aureus clinical isolate after 20 to 24 hrs; type: functional
Staphylococcus aureus [25] = experiment: Antibacterial activity against methicillin-sensitive Staphylococcus aureus ATCC 49775 after 20 to 24 hrs in presence of 50% heat inactivated bovine serum; type: functional
Staphylococcus aureus [26] = experiment: Antibacterial activity against methicillin-sensitive Staphylococcus aureus ATCC 29213 after 20 to 24 hrs in presence of 50% heat inactivated bovine serum; type: functional
Pseudomonas aeruginosa [27] = experiment: Antibacterial activity against Pseudomonas aeruginosa ATCC 27853 after 20 to 24 hrs; type: functional
Staphylococcus aureus [28] = experiment: Antibacterial activity against methicillin-sensitive Staphylococcus aureus ATCC 49775 after 20 to 24 hrs; type: functional
[29] = Selectivity index, ratio of GI50 for human HEL299 cells to MIC50 for methicillin-resistant Staphylococcus aureus clinical isolate; type: functional, HEL 299
Staphylococcus aureus [30] = experiment: Bactericidal activity against methicillin-sensitive Staphylococcus aureus ATCC 25923 after 24 and 48 hrs; type: functional
Staphylococcus aureus [31] = experiment: Antibacterial activity against methicillin-sensitive Staphylococcus aureus ATCC 25923 after 20 to 24 hrs; type: functional
Staphylococcus aureus [32] = experiment: Bactericidal activity against […] Staphylococcus aureus clinical isolate USA300 assessed as log reduction in bacterial cell number at 8 times MIC after 24 hrs by time-kill curve analysis; type: functional, organism-based
Staphylococcus aureus [33] = experiment: Ratio of MBC for methicillin-sensitive Staphylococcus aureus ATCC 25923 to MIC90 for methicillin-sensitive Staphylococcus aureus ATCC 25923; type: functional
[34] = Cytotoxicity against human HepG2 cells after 24 hrs by WST-1 based colorimetric assay; type: cell-based
Staphylococcus aureus [35] = experiment: Ratio of MBC for methicillin-sensitive Staphylococcus aureus ATCC 6538 to MIC90 for methicillin-sensitive Staphylococcus aureus ATCC 6538; type: functional
Staphylococcus aureus [36] = experiment: Bactericidal activity against methicillin-sensitive Staphylococcus aureus ATCC 49775 after 24 and 48 hrs; type: functional
Babesia microti = experiment: Antiprotozoal activity against Babesia microti ATCC PRA-99 infected in BALB/c mouse assessed as suppression of parasitemia at 25 and 50 mg/kg, administered 4 times daily; type: functional
Staphylococcus aureus [37] = experiment: Bactericidal activity against […] Staphylococcus aureus clinical isolate USA300 assessed as log reduction in bacterial cell number at 2 times MIC after 24 hrs by time-kill curve analysis; type: functional, organism-based
Staphylococcus aureus [38] = experiment: Bactericidal activity against Methicillin-sensitive Staphylococcus aureus ATCC 29213 assessed as log reduction in bacterial cell number at MIC after 8 hrs by time kill curve analysis
Staphylococcus aureus [39] = experiment: Inhibition of biofilm formation in methicillin-resistant Staphylococcus aureus after 24 hrs by MBEC assay; type: functional
Staphylococcus aureus [40] = experiment: Antibacterial activity against methicillin-sensitive Staphylococcus aureus ATCC 29213 after 20 to 24 hrs in presence of 50% heat inactivated bovine serum
Staphylococcus aureus [41] = experiment: Bactericidal activity against methicillin-sensitive Staphylococcus aureus ATCC 6538 after 24 and 48 hrs; type: functional
Staphylococcus aureus [42] = experiment: Ratio of MBC for methicillin-sensitive Staphylococcus aureus ATCC 49775 to MIC90 for methicillin-sensitive Staphylococcus aureus ATCC 49775; type: functional
Staphylococcus aureus [43] = experiment: Ratio of MBC for methicillin-sensitive Staphylococcus aureus ATCC 29213 to MIC90 for methicillin-sensitive Staphylococcus aureus ATCC 29213; type: functional
[44] = Intrinsic clearance in mouse liver microsomes assessed per mg of protein; type: ADME; details: read-out: CLH
[45] = Metabolic stability in human liver microsomes assessed as compound loss after 60 mins; type: ADME; details: read-out: Drug degradation
Escherichia coli [46] = experiment: Antibacterial activity against Escherichia coli ATCC 25922 after 20 to 24 hrs in presence of polymyxin B nonapeptide; type: functional
Staphylococcus aureus [47] = experiment: Bactericidal activity against methicillin-sensitive Staphylococcus aureus clinical isolate USA300 assessed as log reduction in bacterial cell number at MIC after 8 hrs by time-kill curve analysis; type: functional

## N=C(N/N=C/c1ccc(Cl)cc1)N/N=C/c1ccc(Cl)cc1 [ROBENIDINE]
Staphylococcus aureus [1]
  MBC: 5.4 µM (≈ 1.8 µg/mL)
Staphylococcus aureus [2]
  Activity: inactive
[3]
  metabolised at 1 h: < 15%
Staphylococcus aureus [4]
  Activity: >=4 log10CFU/ml
[5]
  half-life: > 247 min
[6]
  GI50 at 24 h: 17.7 µM
Staphylococcus aureus [7]
  Activity: >=4 log10CFU/ml
[8]
  Selectivity Index: 2
[9]
  half-life: > 247 min
Staphylococcus aureus [10]
  Activity: inactive
Staphylococcus aureus [11]
  MBC: 5.4 µM (≈ 1.8 µg/mL)
Staphylococcus aureus [12]
  MIC90: 43.1 µM
[13]
  LD50: 3000 mg/kg
Pseudomonas aeruginosa [14]
  MIC90: 21.6 µM
Staphylococcus aureus [15]
  FC: <=3
[16]
  LD50: 2900 mg/kg
[17]
  Selectivity Index: 2
Pseudomonas aeruginosa [18]
  Ratio: 10
Staphylococcus aureus [19]
  Activity: inactive
[20]
  Selectivity Index: 2
Staphylococcus aureus [21]
  MIC: 8.1 µM (≈ 2.71 µg/mL)
Staphylococcus aureus [22]
  Activity: >=4 log10CFU/ml
Escherichia coli [23]
  Ratio: 10
Staphylococcus aureus [24]
  MIC90: 5.4 µM (≈ 1.8 µg/mL)
Staphylococcus aureus [25]
  MIC90: > 250 µM
Staphylococcus aureus [26]
  MIC90: > 250 µM
Pseudomonas aeruginosa [27]
  MIC: > 400 µM
Staphylococcus aureus [28]
  MIC90: 5.4 µM (≈ 1.8 µg/mL)
[29]
  Selectivity Index: 2
Staphylococcus aureus [30]
  MBC: 5.4 µM (≈ 1.8 µg/mL)
Staphylococcus aureus [31]
  MIC90: 5.4 µM (≈ 1.8 µg/mL)
Staphylococcus aureus [32]
  Activity: inactive
Staphylococcus aureus [33]
  Ratio: 1
[34]
  GI50 at 24 h: 25.4 µM
Staphylococcus aureus [35]
  Ratio: 1
Staphylococcus aureus [36]
  MBC: 5.4 µM (≈ 1.8 µg/mL)
Babesia microti
  inhibition (INH): 100%
Staphylococcus aureus [37]
  Activity: inactive
Staphylococcus aureus [38]
  Activity: inactive
Staphylococcus aureus [39]
  INH: >43.2 µM
Staphylococcus aureus [40]
  MIC90: > 250 µM
Staphylococcus aureus [41]
  MBC: 5.4 µM (≈ 1.8 µg/mL)
Staphylococcus aureus [42]
  Ratio: 1
Staphylococcus aureus [43]
  Ratio: 1
[44]
  microsomal CLint: < 7 µL/min/mg
[45]
  metabolised at 1 h: < 15%
Escherichia coli [46]
  MIC90: 21.6 µM
Staphylococcus aureus [47]
  Activity: >=4 log10CFU/ml
